Patent publication US20110144303A1, “Biologically Active Peptidomimetic Macrocycles” (AILERON Therapeutics, Inc., priority 2008, published 2011)
“And” between values parts separate entries of the source, which are not always exact repeats. Equal entries are not always repeated. Where two headings read alike, the source gives them in different places. Starred links: 1 amine or outer side, 2 acyl side, 3 side chain; linkers in the order of their positions; H or OH if unused. Positions of bridges follow the written chain, without caps; N, C: chain ends. Non-standard residues stand in square brackets, D forms with d. Residues, ends and D or L forms follow the SMILES beside them. ξ: configuration not given here. Nle(6-ylidene) = O=C([C@H](CCCC=[*:3])N[*:1])[*:2]; Nle = CCCC[C@H](N)C(=O)O; ξαMeC = CC(N)(CS)C(=O)O; X1 = C(=CC[*:2])C[*:1]; X2 = C(CC[*:2])C[*:1]

Columns and labels:
[1] = Pepsin Stability: (E/S 1:50)
Excerpt: Table printed on a drawing sheet, Figure 12
(§1) Title: Pepsin Stability: (E/S 1:50)
The patent's description of the figure: FIG. 12 describes the comparative pepsin stability of SP-1 and SP-35 peptidomimetic macrocycles of the invention.
First reader's note: The title is printed over the plot below the table; the rate constants and half-lives describe degradation by pepsin, and the time points used are on the plot's Time (min) axis.

GST-Bcl-XL = target: T1, GST-Bcl-XL (Homo sapiens, UniProt Q07817); experiment: Kd
T1 construct: GST
T1 sequence (Q07817 whole entry, looked up): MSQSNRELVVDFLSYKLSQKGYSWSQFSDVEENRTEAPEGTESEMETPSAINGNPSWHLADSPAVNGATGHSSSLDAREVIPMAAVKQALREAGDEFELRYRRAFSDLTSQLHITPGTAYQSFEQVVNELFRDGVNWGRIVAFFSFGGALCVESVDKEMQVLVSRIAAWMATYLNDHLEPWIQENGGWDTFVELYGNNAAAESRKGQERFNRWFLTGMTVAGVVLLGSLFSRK
Procedure: Table printed on a drawing sheet, Figure 7
The patent's description of the figure: FIG. 7 depicts binding properties to GST-Bcl-XL of SP-1 and SP-35 peptidomimetic macrocycles.
First copying reader's note: The table stands beside a saturation binding plot (2 µM receptor, 1x PBS + 5 mM CHAPS, 2.5% DMSO) whose legend names GST-Bcl-xL as the receptor for both peptides.
Where the first naming reader finds the target: description_of_the_figure: FIG. 7 depicts binding properties to GST-Bcl-XL of SP-1 and SP-35 peptidomimetic macrocycles.

[2] = Pharmacokinetics of SP-1 and SP-35 in Rat following IV dose
Excerpt: Table printed on a drawing sheet, Figure 18
Title: Pharmacokinetics of SP-1 and SP-35 in Rat following IV dose
The patent's description of the figure: FIG. 18 illustrates the pharmacokinetic properties of SP-1 and SP-35 peptidomimetic macrocycles in rats.
First reader's note: The title stands over the plot above the table and applies to both: rat, IV dose.

GST-Bcl-2 [3] = experiment: Kd
Procedure: Table printed on a drawing sheet, Figure 8
The patent's description of the figure: FIG. 8 depicts binding properties to GST-Bcl-2 of SP-1 and SP-35 peptidomimetic macrocycles.
First copying reader's note: The Kd values belong to the plot beside the table, titled 'Saturation Binding Curves vs. 2 µM Receptor, 1x PBS + 5 mM CHAPS, 2.5% DMSO', whose legend names the receptor as GST-Bcl-2.
Where the first naming reader finds the target: description_of_the_figure: FIG. 8 depicts binding properties to GST-Bcl-2 of SP-1 and SP-35 peptidomimetic macrocycles.

[4] = Pepsin Stability: (E/S 1:50); remark: listed apart in the source
Excerpt: Table printed on a drawing sheet, Figure 14
as §1
The patent's description of the figure: FIG. 14 describes the comparative pepsin stability of SP-33 and SP-34 peptidomimetic macrocycles of the invention.
First reader's note: The title is the heading of the plot printed under the table; the table gives the rate constants and half-lives of the pepsin digestion, fitted over the named time points.

[5] = Pepsin Stability: (E/S 1:50); remark: listed apart in the source
Excerpt: Table printed on a drawing sheet, Figure 13
as §1
The patent's description of the figure: FIG. 13 describes the comparative pepsin stability of SP-36 and SP-37 peptidomimetic macrocycles of the invention.
First reader's note: Each peptide appears twice (duplicate runs); the title is printed between the table and the plot of the same figure, and NC/NA are not defined on the sheet.

[6] = Pharmacokinetics of SP-43 and SP-42 in Rat following IV dose; settings: in vivo
Excerpt: Table printed on a drawing sheet, Figure 20
Title: Pharmacokinetics of SP-43 and SP-42 in Rat following IV dose
The patent's description of the figure: FIG. 20 illustrates the pharmacokinetic properties of SP-42 and SP-43 peptidomimetic macrocycles in rats.
First reader's note: Pharmacokinetic parameters in rat after an IV dose; the table stands under a concentration-time plot that is not copied.

[7] = Pharmacokinetics of SP-4 and SP-54 in Rats following IV dose
Excerpt: Table printed on a drawing sheet, Figure 19
Title: Pharmacokinetics of SP-4 and SP-54 in Rats following IV dose
The patent's description of the figure: FIG. 19 illustrates the pharmacokinetic properties of SP-4 and SP-54 peptidomimetic macrocycles in rats.
First reader's note: Pharmacokinetic parameters in rats after IV dosing; the table is printed under a concentration-time plot that is not copied.

GST-Bcl-2 [8] = experiment: Kd; remark: listed apart in the source
Procedure: Table printed on a drawing sheet, Figure 5
The patent's description of the figure: FIG. 5 depicts binding properties to GST-Bcl-2 of SP-4 and SP-54 peptidomimetic macrocycles.
First copying reader's note: Kd values belong to the plot beside the table, titled 'Saturation Binding Curves vs. 2 µM Receptor, 1x PBS + 5 mM CHAPS, 2.5% DMSO', with GST-Bcl-2 as the receptor.
Where the first naming reader finds the target: description_of_the_figure: FIG. 5 depicts binding properties to GST-Bcl-2 of SP-4 and SP-54 peptidomimetic macrocycles.

GST-Mcl-1 = experiment: Kd
Procedure: Table printed on a drawing sheet, Figure 4
The patent's description of the figure: FIG. 4 depicts binding properties to GST-Mcl-1 of SP-4 and SP-54 peptidomimetic macrocycles.
First copying reader's note: Kd values belong to the adjacent saturation binding plot (stapled peptides + GST-Mcl-1, 2 µM receptor, 1x PBS + 5 mM CHAPS, 2.5% DMSO).
Where the first naming reader finds the target: description_of_the_figure: FIG. 4 depicts binding properties to GST-Mcl-1 of SP-4 and SP-54 peptidomimetic macrocycles.

CCCC[C@H](NC(=O)[C@@H]1CCCC=CCCC[C@H](NC(=O)[C@H](C)NC(=O)[C@H](CC(C)C)NC(=O)[C@H](Cc2c[nH]cn2)NC(=O)[C@H](CCCNC(=N)N)NC(=O)[C@H](C)NC(=O)[C@@H](NC(=O)[C@H](CC(N)=O)NC(=O)[C@H](CCCNC(=N)N)NC(=O)[C@@H](NC(=O)[C@@H](NC(=O)[C@H](CC(=O)O)NC(C)=O)[C@@H](C)CC)[C@@H](C)CC)[C@@H](C)CC)C(=O)N[C@@H](C(C)C)C(=O)NCC(=O)N[C@@H](CC(=O)O)C(=O)N1)C(=O)N[C@@H](CC(=O)O)C(=O)N[C@@H](CCCNC(=N)N)C(=O)N[C@@H](CO)C(=O)N[C@H](C(N)=O)[C@@H](C)CC [SP-35, Ac-DIIRNIARHLA#VGD#NleDRSI-NH2] (Ac-DIIRNIARHLA[Nle(6-ylidene)]VGD[Nle(6-ylidene)][Nle]DRSI-NH2; staple 12-16)
K1 min^-1 [1]: 0.15 min⁻¹
K2 min^-1 [1]: 0.0430 min⁻¹
half-life^1 [1]: 4.6 min
half-life^2 [1]: 16 min
Kd (GST-Bcl-XL): > 10000 nM
AUC,inf [2]: 15400 ng·h/mL
Cl [2]: 3.25 mL/min/kg
Vss [2]: 0.132 L/kg
Vz [2]: 2.025 L/kg
Cmax ([2]; rat, in vivo, iv): 32200 ng/mL
MRT ([2]; rat, in vivo, iv): 40.8 min
half-life ([2]; rat, in vivo, iv): 126 min
Kd (GST-Bcl-2 [3]): > 10000 nM

CCCC[C@H](NC(=O)C1(C)CSCCCCSCC(C)(NC(=O)[C@H](C)NC(=O)[C@H](CC(C)C)NC(=O)[C@H](Cc2c[nH]cn2)NC(=O)[C@H](CCCNC(=N)N)NC(=O)[C@H](C)NC(=O)[C@@H](NC(=O)[C@H](CC(N)=O)NC(=O)[C@H](CCCNC(=N)N)NC(=O)[C@@H](NC(=O)[C@@H](NC(=O)[C@H](CC(=O)O)NC(C)=O)[C@@H](C)CC)[C@@H](C)CC)[C@@H](C)CC)C(=O)N[C@@H](C(C)C)C(=O)NCC(=O)N[C@@H](CC(=O)O)C(=O)N1)C(=O)N[C@@H](CC(=O)O)C(=O)N[C@@H](CCCNC(=N)N)C(=O)N[C@@H](CO)C(=O)N[C@H](C(N)=O)[C@@H](C)CC (stereo partly shown) [SP-34, Ac-DIIRNIARHLA$c4VGD$c4NleDRSI-NH2] (Ac-DIIRNIARHLA[ξαMeC]VGD[ξαMeC][Nle]DRSI-NH2; linker 12-16 via X2)
K1 min^-1 [4]: 0.0019 min⁻¹
half-life^1 [4]: 360 min

CCCC[C@H](NC(=O)[C@@H]1CSCC=CCSC[C@H](NC(=O)[C@H](C)NC(=O)[C@H](CC(C)C)NC(=O)[C@H](Cc2c[nH]cn2)NC(=O)[C@H](CCCNC(=N)N)NC(=O)[C@H](C)NC(=O)[C@@H](NC(=O)[C@H](CC(N)=O)NC(=O)[C@H](CCCNC(=N)N)NC(=O)[C@@H](NC(=O)[C@@H](NC(=O)[C@H](CC(=O)O)NC(C)=O)[C@@H](C)CC)[C@@H](C)CC)[C@@H](C)CC)C(=O)N[C@@H](C(C)C)C(=O)NCC(=O)N[C@@H](CC(=O)O)C(=O)N1)C(=O)N[C@@H](CC(=O)O)C(=O)N[C@@H](CCCNC(=N)N)C(=O)N[C@@H](CO)C(=O)N[C@H](C(N)=O)[C@@H](C)CC [SP-36, Ac-DIIRNIARHLA#cVGD#cNleDRSI-NH2] (Ac-DIIRNIARHLACVGDC[Nle]DRSI-NH2; linker 12-16 via X1)
K1 min^-1 [5]: 0.095 min⁻¹ and 0.082 min⁻¹
K2 min^-1 [5]: 0.0290 min⁻¹ and 0.024 min⁻¹
half-life^1 [5]: 7.3 min and 8.5 min
half-life^2 [5]: 24 min and 29 min

CC(=O)N[C@@H](CCC(N)=O)C(=O)N[C@@H](CO)C(=O)N[C@@H](CCC(N)=O)C(=O)N[C@@H](CCC(N)=O)C(=O)N[C@H](C(=O)N[C@@H](Cc1ccccc1)C(=O)N[C@@H]1CCCCCCC=CCCC[C@@H](C(=O)N[C@@H](CCC(N)=O)C(=O)N[C@@H](CC(N)=O)C(N)=O)NC(=O)[C@H](CC(C)C)NC(=O)[C@H](CC(C)C)NC(=O)[C@H](CCCNC(=N)N)NC(=O)[C@H](Cc2c[nH]c3ccccc23)NC(=O)[C@H](CC(C)C)NC(=O)[C@H](CC(N)=O)NC1=O)[C@@H](C)O [SP-42, Ac-QSQQTF#r8NLWRLL#QN-NH2]
Cmax [6]: 41200 ng/mL
MRT [6]: 66 min

CC[C@H](C)[C@H](NC(C)=O)C(=O)N[C@@H](Cc1c[nH]c2ccccc12)C(=O)N[C@H](C(=O)N[C@@H](C)C(=O)N[C@@H](CCC(N)=O)C(=O)N[C@@H](CCC(=O)O)C(=O)N[C@@H](CC(C)C)C(=O)N[C@@H](CCCNC(=N)N)C(=O)N[C@H]1CCCC=CCCC[C@@H](C(=O)N[C@@H](Cc2ccccc2)C(=O)N[C@@H](CC(N)=O)C(=O)N[C@@H](C)C(=O)N[C@@H](Cc2ccc(O)cc2)C(=O)N[C@@H](Cc2ccc(O)cc2)C(=O)N[C@@H](C)C(=O)N[C@@H](CCCNC(=N)N)C(=O)N[C@@H](CCCNC(=N)N)C(N)=O)NC(=O)[C@H](CC(=O)O)NC(=O)CNC(=O)[C@H]([C@@H](C)CC)NC1=O)[C@@H](C)CC [SP-54, Ac-IWIAQELR#IGD#FNAYYARR-NH2]
AUC,inf [7]: 12700 ng·h/mL
Cl [7]: 4.02 mL/min/kg
Vss [7]: 0.126 L/kg
Vz [7]: 1.206 L/kg
Cmax ([7]; rat, in vivo, iv): 27100 ng/mL
MRT ([7]; rat, in vivo, iv): 31.2 min
half-life ([7]; rat, in vivo, iv): 60 min
Kd (GST-Bcl-2 [8]): 97 nM
Kd (GST-Mcl-1): 22 nM

CCCC[C@H](NC(=O)[C@@H]1CSCCCCSC[C@H](NC(=O)[C@H](C)NC(=O)[C@H](CC(C)C)NC(=O)[C@H](Cc2c[nH]cn2)NC(=O)[C@H](CCCNC(=N)N)NC(=O)[C@H](C)NC(=O)[C@@H](NC(=O)[C@H](CC(N)=O)NC(=O)[C@H](CCCNC(=N)N)NC(=O)[C@@H](NC(=O)[C@@H](NC(=O)[C@H](CC(=O)O)NC(C)=O)[C@@H](C)CC)[C@@H](C)CC)[C@@H](C)CC)C(=O)N[C@@H](C(C)C)C(=O)NCC(=O)N[C@@H](CC(=O)O)C(=O)N1)C(=O)N[C@@H](CC(=O)O)C(=O)N[C@@H](CCCNC(=N)N)C(=O)N[C@@H](CO)C(=O)N[C@H](C(N)=O)[C@@H](C)CC [SP-33, Ac-DIIRNIARHLA#c4VGD#c4NleDRSI-NH2] (Ac-DIIRNIARHLACVGDC[Nle]DRSI-NH2; linker 12-16 via X2)
K1 min^-1 [4]: 0.054 min⁻¹
K2 min^-1 [4]: 0.0046 min⁻¹
half-life^1 [4]: 13 min
half-life^2 [4]: 150 min
